Assay results reported in patent US11472807B2, “Purine derivatives for use as medicament and for use in treating neurodegenerative or neuro-inflammatory disorders” (COMMISSARIAT À L'ENERGIE ATOMIQUE ET AUX ENERGIES …, priority 2017, dated 2022).

Experiments:
[1] = test system: BDNF; test: BDNF mRNA in OHSC (RT-qPCR); assay type: cell-based; details: OHSCs from WT mice, 50 μM, 10 days
Procedure: (§1) FIG. 15. Plots illustrating the effect of Aftin-5 on relative mRNA expression levels of Long Term Potentialisation (LTP) biomarkers, i.e CREB (A), PSD95 (B) and BDNF (C) in C57B16J OHSC mice treated chronically with Aftin-5. OHSC culture media of OHSC were replaced by incubation medium containing Aftin-5 (50 μM; A50) or vehicle (0.1% DMSO; Veh). 10 days later, total mRNA in lysate was isolated and purified, cDNAs were then synthesized from […] of total mRNA. cDNAs were amplified by quantitative RT-PCR and the relative expression of specific genes was normalized to the housekeeping gene HPRT1 (2^—ΔCt). […] Data expressed as means+/−SEM from q=3 independent experiments with n=4-6 inserts/condition and 10 slices/insert. […]
(§2) The impact of Aftin-5 on gene expression of different biomarkers was determined by measuring mRNA levels of selected BDNF, CREB, PS95, INS Receptor/IGF-1 receptor, IL-1β, IL-6 in OHSC treated chronically with Aftin-5 or in a total brain from mice exposed to Aftin-5 at either 8 or 30 mg/Kg. […] RNA concentration was measured spectrophotometrically at 260 nm in a NanoDrop 2000c (Thermo Scientific, Villebon-sur-Yvette, France) (sample A260 nm/A280 nm ratios over 1.8 indicated reduced genomic DNA contamination). cDNAs were synthesized from 0.5 μg of total RNA with RT^2 First Strand kit (Qiagen, Courtaboeuf, France) according to the manufacturer's protocol and stored at −80° C. […]

[2] = test system: PSD95; test: PSD95 mRNA in OHSC (RT-qPCR); assay type: cell-based; details: OHSCs from WT mice, 50 μM, 10 days
Procedure: as §1, §2

[3] = test system: IL-10; test: IL-10 mRNA in OHSC (RT-qPCR); assay type: cell-based, mice; details: 50 μM, 10 days
Procedure: FIG. 10. Plots illustrating the effect of Aftin-5 on relative mRNA expression levels of interleukin-1-beta (IL-1β; (A)), interleukin-6 (IL-6; (B)), TNF-alpha (TNFα; (C)) and interleukin-10 (IL-10; (D)) in organotypic hippocampal slice cultures (OHSC). OHSC culture media […] were replaced by incubation medium containing Aftin-5 (50 μM; A50) or vehicle (0.1% DMSO; Veh). 10 days later, total mRNA in lysate was isolated and purified, cDNAs were then synthesized from […] of total mRNA. cDNAs were amplified by quantitative RT-PCR and the relative expression of specific genes was normalized to the housekeeping gene HPRT1 (2^−ΔCt). Mann-Whitney tests were performed and ***p<0.001 indicates significant differences between Aftin-5 and control conditions. Data expressed as means+/−SEM from q=3 independent experiments with n=4-6 inserts/condition and 10 slices/insert. […]
The impact of Aftin-5 on gene expression of different biomarkers was determined by measuring mRNA levels of selected BDNF, CREB, PS95, INS Receptor/IGF-1 receptor, IL-1β, IL-6 in OHSC treated chronically with Aftin-5 or in a total brain from mice exposed to Aftin-5 at either 8 or 30 mg/Kg. […] Threshold cycles (Ct) of target gene and cyclophilin A (Ppia−control housekeeping gene) were recorded and gene expression was calculated as 2^−ΔΔCt(ΔΔCt=ΔCttreated−ΔCtcontrol, ΔCt=Cttarget−CtPpia). […]

In the case of CC[C@H](CO)Nc1nc(N(C)c2ccccc2)c2ncn(C(C)C)c2n1 [Aftin-5], the “BDNF mRNA” value [1] is reported as “transcriptional upregulation”, the “PSD95 mRNA” value [2] is reported as “transcriptional upregulation” and the “IL-10 mRNA synthesis” value [3] is reported as “no changes”.
